Here are results for 16 molecules from patent US7678386B2, “Liposomes coated with selected antibodies that bind to aminophospholipids” (Board of Regents the University of Texas, priority 2002, dated 2010).

The conditions of series [1]: patients having progressive disease before treatment; cited from earlier work.
A further series relates to ABAE cells. Briefly: Detection of PS on cultured endothelial cells by 125I-labeled annexin V. The series is classed as cell-based, bovine. The following applies: for 125I-Annexin V (% of Max binding), ABAE cells: 24 h, concentration as listed per treatment; for anionic phospholipid-exposure (% of the maximum): ABAE cells, hypoxia/reoxygenation in the presence of sub-toxic cytokine. How it is done: (§1) All reagents were diluted in medium containing 10% serum and incubated with the cells at 37° C. for 24 h.
(§2) To study the effect of hypoxia, cells were seeded on 24 well plates and were incubated in a humidified normoxic atmosphere (21% O2. 5% CO2) for 48 h before being transferred to a humidified hypoxic atmosphere (1% O2, 5% CO2, 94% N2) in a sealed chamber (Billups Rothenberg Inc., Del Mar, Calif.). Cells were incubated in a hypoxic chamber for 24 h at 37° C. and were then returned to a normoxic environment for 4 h at 37° C. The cells were compared to a parallel culture from an identical passage, seeded on the same day and maintained entirely under normoxic conditions. In some studies, IL-1α (10 ng/ml) and TNFα (20 ng/ml) were added to the medium before transfer to the hypoxic chamber.
(§3) After treatment with the reagents described above, treated and control cells were incubated with 7.1 pmoles of ^125I-labeled annexin V (200 μl/well) in the binding buffer. After 2 h incubation at room temperature, cells were washed extensively and dissolved in 0.5 M of NaOH. The entire volume of 0.5 ml was transferred to plastic tubes and counted in a gamma counter. Non-specific binding was determined in the presence of 5 mM EDTA and was subtracted from experimental values. The results were expressed as net pmoles of cell-bound annexin V, normalized per 1×10^6 cells.
(§4) Maximal binding of annexin V was determined on cells simultaneously treated with actinomycin D and TNFα (50 ng/ml of each component). As has been previously reported, these agents cause apoptosis and PS exposure in 90-100% of endothelial cells (Lucas et al., 1998). Basal binding of ^125I-annexin V to untreated cells was determined in the presence of medium with 10% serum. The amount of ^125I-annexin V that bound to the untreated cultures was subtracted from that in the treated cultures. Exposure of PS was calculated according to the following formula: cell-bound annexin V (pmoles) under experimental conditions divided by maximal annexin V binding (pmoles), multiplied by 100. Each study was performed in duplicate and was performed at least three times. Mean values were calculated. The SE of the mean values from three separate experiments was less than 5%.

The subject of the next series is bEnd.3 cells. The description is as above. The series is classed as cell-based, mouse. The settings on record: for 125I-Annexin V (% of Max binding), bEnd.3 cells: 24 h, concentration as listed per treatment. How it is done:
as §1, §2, §3, §4

Another series deals with bEnd.3 endothelial cells. Briefly: Induction of PS by H2O2: anti-PS IgM staining and Trypan Blue exclusion.
The next series has as its system HUVEC and HMVEC. Briefly: Induction of PS exposure on endothelial cells by docetaxel (FACS, 3G4 binding). The following applies: 10 nM, 24 hrs. The class given is cell-based, human. The method, then:
FIG. 24A and FIG. 24B. Induction of PS exposure on endothelial cells by docetaxel. Human umbilical vein endothelial cells (HUVEC) and human microvessel endothelial cells (HMVEC) were treated with 10 nM of docetaxel for 24 hrs. […] The cells were then washed twice, FITC labeled goat anti-mouse IgG was added and the cells incubated for a further 30 mins. on ice. The cells were then washed and analyzed by FACS using a FACSCalibur cytometer (Becton-Dickinson, San Jose, Calif.) with CellQuest acquisition software.
(§5) The induction of PS exposure on endothelial cells by subclinical concentrations of docetaxel was examined in vitro by FACS analysis. Human umbilical vein endothelial cells (HUVEC) and human microvessel endothelial cells (HMVEC) were treated with 10 nM of docetaxel for 24 hrs and examined by FACS. […] Docetaxel incubations for 48 and 72 hrs were also conducted.

In another series the test system is tumor cell lines. As to the kind of experiment: Induction of PS exposure on tumor cell lines by docetaxel (FACS). The following applies: 10 nM, 24 hrs. The series is classed as cell-based. The method, then:
FIG. 25A, FIG. 25B and FIG. 25C. Induction of PS exposure on tumor cell lines by docetaxel. Mouse lewis lung carcinoma 3LL, mouse colon carcinoma Colo26 and human breast cancer MDA-MB-435 cells were treated with 10 nM of docetaxel for 24 hrs. […] The cells were then washed twice, FITC labeled goat anti-mouse IgG was added and the cells incubated for a further 30 mins. on ice. The cells were then washed and analyzed by FACS using a FACSCalibur cytometer (Becton-Dickinson, San Jose, Calif.) with CellQuest acquisition software.
FIG. 26. Induction of PS exposure on human breast cancer MDA-MB-231 cells by docetaxel. Human breast cancer MDA-MB-231 cells were treated with 10 nM of docetaxel for 24 hrs. […] The cells were then washed twice, FITC labeled anti-IgG was added and the cells analyzed by FACS, as above. There is a significant increase in ch3G4 binding as compared to control, human IgG.
(§6) The in vitro induction of PS exposure by subclinical concentrations of docetaxel was also examined by FACS analysis using a panel of tumor cell lines. Mouse lewis lung carcinoma 3 LL, mouse colon carcinoma Colo26 and human breast cancer MDA-MB-435 cells were treated with 10 nM of docetaxel for 24 hrs and examined by FACS. […] Docetaxel incubations for 48 and 72 hrs were also conducted.

Series [2] relates to human umbilical vein endothelial cells (HUVEC). As to the kind of experiment: PS exposure on endothelial cells by FACS (3G4 binding), HUVEC. The following applies: 10 nM docetaxel, 24 hrs, compared to untreated cells. The class given is cell-based. The method, then: as §5
In general terms: In flow cytometry, cells or beads pass a laser one at a time.

The test system of series [3] is human microvessel endothelial cells (HMVEC). Briefly: PS exposure on endothelial cells by FACS (3G4 binding), HMVEC. The series is classed as cell-based. The settings on record: 10 nM docetaxel, 24 hrs, compared to untreated cells. The method, then:
as §5

The subject of series [4] is Mouse lewis lung carcinoma 3 LL. Briefly: PS exposure on tumor cells by FACS (3G4 binding), 3LL. The class given is cell-based. The following applies: 3 LL cells, 10 nM docetaxel, 24 hrs, compared with untreated cells. The method, then: as §6
The subject of series [5] is mouse colon carcinoma Colo26. As to the kind of experiment: PS exposure on tumor cells by FACS (3G4 binding), Colo26. The following applies: 10 nM docetaxel, 24 hrs, compared with untreated cells. The class given is cell-based. How it is done: as §6
The test system of series [6] is human breast cancer MDA-MB-435 cells. Briefly: PS exposure on tumor cells by FACS (3G4 binding), MDA-MB-435. The series is classed as cell-based. The following applies: 10 nM docetaxel, 24 hrs, compared with untreated cells. How it is done:
as §6

A further series concerns Mouse melanoma B16. Briefly: PS exposure on tumor cells by FACS (3G4 binding), B16. The settings on record: docetaxel, compared with untreated cells. The series is classed as cell-based.
Series [7] relates to mouse firbrosarcoma Meth A. As to the kind of experiment: PS exposure on tumor cells by FACS (3G4 binding), Meth A. The series is classed as cell-based. The following applies: docetaxel, compared with untreated cells.
For series [8] the following is noted: breast cancer patients; cited from earlier work.

Consider `NC(=O)c1nnn(Cc2cc(Cl)c(C(=O)c3ccc(Cl)cc3)c(Cl)c2)c1N` [CAI, carboxyamidotriazole], for which, in series [1], the “cancer patients with disease stabilization” value is on record as 49%.
Broadly, the cell viability is the share of living cells, or the viability signal relative to a control. High values mean better survival, low ones a greater loss of cells. Turning to `OO` [Hydrogen peroxide, hydrogen peroxide], the “externalization of PS by 125I-annexin V binding” value in the series with ABAE cells (100 to 200 μM, both cell types) amounted to 95%. Besides, the “125I-Annexin V (% of Max binding), ABAE cells” value in the series on ABAE cells is 95.5%. The “cells that bound biotinylated annexin V (immunohistochemically)” value with ABAE cells (ABAE and bEnd.3 cells, 100 to 200 μM) is listed as “More than 70%”. Moreover, in the series on bEnd.3 cells (200 μM for 2 h), the “cells with translocation of anionic phospholipids to the external surface (125I-labeled annexin V)” value is listed as 70-90%. Also, the “125I-Annexin V (% of Max binding), bEnd.3 cells” value with bEnd.3 cells is 98.4%. The “cells with PS detected at the cell surface” value with bEnd.3 endothelial cells (concentrations as low as 20 μM) is “about 50%”. Moreover, in the series with bEnd.3 endothelial cells (high concentrations, 1 hour), the cell viability was 50-60% and the “cells with PS translocation” value is recorded as around 90%. The cell viability in the series on bEnd.3 endothelial cells (low levels of H2O2, identical to untreated cells) is 95%.
As for `CC(=O)O[C@@]12CO[C@@H]1C[C@H](O)[C@@]1(C)C(=O)[C@H](O)C3=C(C)[C@@H](OC(=O)[C@H](O)[C@@H](NC(=O)OC(C)(C)C)c4ccccc4)C[C@@](O)([C@@H](OC(=O)c4ccccc4)[C@H]21)C3(C)C` [docetaxel], the “3G4 binding vs. untreated cells” value in the series on HUVEC and HMVEC (HMVEC) is reported as “significant increase in 3G4 binding”; in the series with HUVEC and HMVEC (HUVEC), “significant increase in 3G4 binding”; with tumor cell lines (3LL, Colo26, MDA-MB-435 cells) it was “significant increase in 3G4 binding”. In addition, in the series with tumor cell lines (MDA-MB-231, vs. human IgG), the “antibody (ch3G4) binding to treated cells” value is “significant increase in antibody binding”. Besides, the “3G4 binding by FACS (PS exposure)” value (in [2]; in [3]; in series [4]; in series [5]; in series [6]; with Mouse melanoma B16) was “significant increase in 3G4 binding” throughout. In addition, the “3G4 binding by FACS (PS exposure)” value in series [7] is given as “significant increase in 3G4 binding”. Further, the “serum cytokine levels and NK/LAK cell activity” value in [8] is “increase in serum IFN-γ, IL-2, IL-6 and GM-CSF cytokine levels and enhancement of NK and LAK cell activity”.
As to FGF-2: human fibroblast growth factor-2, the “125I-Annexin V (% of Max binding), ABAE cells” value in the series with ABAE cells was 0%. Further, the “125I-Annexin V (% of Max binding), bEnd.3 cells” value in the series with bEnd.3 cells is on record as 0%.
Consider “Hypoxia + IL-1α: IL-1α (10 ng/ml) under hypoxia/reoxygenation”, for which the “125I-Annexin V (% of Max binding), ABAE cells” value in the series with ABAE cells was 26.0%. Also, the “125I-Annexin V (% of Max binding), bEnd.3 cells” value with bEnd.3 cells was found to be 31.0%.
The matching figures for IL-6: interleukin-6: 0% and 0%.
In the case of IL-8: interleukin-8, in the series with ABAE cells, the “125I-Annexin V (% of Max binding), ABAE cells” value was determined as 0%. In the series on bEnd.3 cells, the “125I-Annexin V (% of Max binding), bEnd.3 cells” value is listed as 0%.
Turning to IL-10: interleukin-10, in the series on ABAE cells, the “125I-Annexin V (% of Max binding), ABAE cells” value is 0%. In the series on bEnd.3 cells, the “125I-Annexin V (% of Max binding), bEnd.3 cells” value turned out to be 0%.
As for Interferon, in the series with ABAE cells, the “125I-Annexin V (% of Max binding), ABAE cells” value is 8.6%. Moreover, the “125I-Annexin V (% of Max binding), bEnd.3 cells” value with bEnd.3 cells is given as 2.8%.
Take “Scatter factor: recombinant hepatocyte growth factor (HGF or scatter factor)”: the “125I-Annexin V (% of Max binding), ABAE cells” value in the series on ABAE cells is 0%. Moreover, in the series with bEnd.3 cells, the “125I-Annexin V (% of Max binding), bEnd.3 cells” value was 0%.
As for TGF β1: growth factor, the “125I-Annexin V (% of Max binding), ABAE cells” value in the series with ABAE cells was found to be 0%. Besides, the “125I-Annexin V (% of Max binding), bEnd.3 cells” value in the series on bEnd.3 cells is listed as 0%.
In the case of TNFα, in the series on ABAE cells, the “125I-Annexin V (% of Max binding), ABAE cells” value was found to be 7.4% and the “anionic phospholipid-exposure (% of the maximum)” value amounted to 33%. Further, the “125I-Annexin V (% of Max binding), bEnd.3 cells” value in the series on bEnd.3 cells is given as 13.7%.
For Thrombin, the “125I-Annexin V (% of Max binding), ABAE cells” value in the series on ABAE cells worked out at 8.8%. Also, the “125I-Annexin V (% of Max binding), bEnd.3 cells” value in the series with bEnd.3 cells amounted to 17.4%.
Consider VEGF, for which, in the series with ABAE cells, the “125I-Annexin V (% of Max binding), ABAE cells” value turned out to be 0%. The “125I-Annexin V (% of Max binding), bEnd.3 cells” value in the series with bEnd.3 cells is on record as 0%.

B1: IL-1β: recombinant murine interleukin-1 beta (protein, UniProt P10749 118-269, looked up)
Interleukin-1 beta: VPIRQLHYRLRDEQQKSLVLSDPYELKALHLNGQNINQQVIFSMSFVQGEPSNDKIPVALGLKGKNLYLSCVMKDGTPTLQLESVDPKQYPKKKMEKRFVFNKIEVKSKVEFESAEFPNWYISTSQAEHKPVFLGNNSGQDIIDFTMESVSS
As for B1, the “125I-Annexin V (% of Max binding), ABAE cells” value with ABAE cells was found to be 5.8%. Moreover, the “125I-Annexin V (% of Max binding), bEnd.3 cells” value with bEnd.3 cells was found to be 5.5%.

B2: IL-1α: recombinant murine interleukin-1 alpha (protein, UniProt P01582 115-270, looked up)
Interleukin-1 alpha: SAPYTYQSDLRYKLMKLVRQKFVMNDSLNQTIYQDVDKHYLSTTWLNDLQQEVKFDMYAYSSGGDDSKYPVTLKISDSQLFVSAQGEDQPVLLKELPETPKLITGSETDLIFFWKSINSKNYFTSAAYPELFIATKEQSRVHLARGLPSMTDFQIS
B2: in the series with ABAE cells, the “125I-Annexin V (% of Max binding), ABAE cells” value is given as 6.4% and the “anionic phospholipid-exposure (% of the maximum)” value is reported as 26%. Further, the “125I-Annexin V (% of Max binding), bEnd.3 cells” value in the series with bEnd.3 cells is reported as 7.5%.
